Three compounds from patent US20180305332A1, “Bispiperidinyl Derivatives as Liver X Receptor Beta Agonists, Compositions, and Their Use” (Merck Sharp & Dohme Corp., priority 2015, published 2018) can be followed below.

Structures are written as SMILES.

Assay [1] has as its target T1, GST tagged LXRalpha LBD (ligand binding domain) (Homo sapiens, UniProt Q13133).
T1 construct: purchased Invitrogen pv4655
T1 sequence (Q13133 209-447 limits assumed): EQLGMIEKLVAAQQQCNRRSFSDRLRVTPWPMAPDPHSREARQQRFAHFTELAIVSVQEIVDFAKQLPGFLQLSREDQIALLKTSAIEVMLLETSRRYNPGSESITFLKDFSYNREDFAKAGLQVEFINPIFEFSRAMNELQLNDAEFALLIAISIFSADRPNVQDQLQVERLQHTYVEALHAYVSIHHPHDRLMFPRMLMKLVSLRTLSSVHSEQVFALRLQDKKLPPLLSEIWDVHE
In words: LanthaScreen TR-FRET Liver X Receptor Coactivator Assay, LXR alpha-LBD. In kind it is biochemical. Particulars: relative to reference T0901317; for EC50: Inflection Point (potency), co-activator recruitment, read-out: LXR alpha IP; for Emax: activity at max dose (efficacy), read-out: LXR alpha act @ max dose (%). Put shortly: (§1)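 Compound-induced coactivator recruitment measured by TR-FRET between a terbium anti-GST antibody bound to the GST-LBD (LXRα or LXRβ, human) and a fluorescein coactivator peptide, after incubation at room temperature. Potency (inflection point) and efficacy (Emax) referenced to T0901317.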
(In general: In TR-FRET formats the signal depends on donor and acceptor labels being close together.)

Assay [2] addresses T2, GST tagged LXRbeta LBD (ligand binding domain) (Homo sapiens, UniProt P55055).
T2 construct: purchased Invitrogen pv4658.pps
T2 sequence (P55055 222-460 limits assumed): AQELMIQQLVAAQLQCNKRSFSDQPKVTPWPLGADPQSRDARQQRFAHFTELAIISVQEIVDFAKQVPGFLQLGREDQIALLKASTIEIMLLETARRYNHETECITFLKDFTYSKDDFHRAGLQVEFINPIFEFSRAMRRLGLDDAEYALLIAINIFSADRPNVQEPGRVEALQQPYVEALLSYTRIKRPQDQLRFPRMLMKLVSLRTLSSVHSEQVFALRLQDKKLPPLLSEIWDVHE
In words: LanthaScreen TR-FRET Liver X Receptor Coactivator Assay, LXR beta-LBD. It counts as biochemical. The settings on record: relative to reference T0901317; for EC50: Inflection Point (potency), co-activator recruitment, read-out: LXR beta IP; for Emax: activity at max dose (efficacy), read-out: LXR beta act @ max dose (%). Put shortly:
as §1

As to `CN(C)C(=O)c1ccc(N2CCC(C3CCN(C(=O)[C@@](C)(O)c4ccccc4)CC3)CC2)cc1Cl` [Example A-53, 2-chloro-4-{1′-[(2S)-2-hydroxy-2-phenylpropanoyl]-4,4′-bipiperidin-1-yl}-N,N-dimethylbenzamide], the EC50 is 3.23 µM in assay [1] and 0.256 µM in assay [2]. The Emax in assay [1] was determined as 29%; in assay [2] it was 108%.
As to `O=C(NC1CN(C(=O)c2ccc(N3CCC(C4CCN(C(=O)[C@](O)(c5ccccc5)C(F)(F)F)CC4)CC3)cc2Cl)C1)c1ccccc1` [Example E-41, N-{1-[(2-chloro-4-{1′-[(2R)-3,3,3-trifluoro-2-hydroxy-2-phenylpropanoyl]-4,4′-bipiperidin-1-yl}phenyl)carbonyl]azetidin-3-yl}benzamide], the EC50 in assay [1] amounted to 1.68 µM; in assay [2], 0.118 µM. In addition, the Emax in assay [1] was found to be 54%; in assay [2] it was 74%.
In the case of `O=C(c1ccc(N2CCC(C3CCN(C(=O)[C@](O)(c4ccccc4)C(F)(F)C(F)(F)F)CC3)CC2)cc1Cl)N1CCCC1` [Example E-17], in assay [1], the EC50 is 0.76 µM and the Emax came to 33%. Also, in assay [2], the EC50 was determined as 0.105 µM and the Emax amounted to 130%.
